According to patent US20140303216A1, “COMPOSITIONS AND METHODS FOR INDUCING DISRUPTION OF BLOOD VASCULATURE AND FOR REDUCING ANGIOGENESIS” (BOARD OF REGENTS, THE UNIVERSITY OF TEXAS SYSTEM, priority 2011, published 2014):

Legend:
[1] = system: developing Xenopus embryos; assay: Ectopic angiogenesis stimulated by VEGF-soaked beads implanted into Xenopus embryos; format: in vivo, Xenopus laevis
Procedure: FIG. 12. TBZ inhibits ectopic angiogenesis (note the doubled PCV in the left panel) stimulated by Affy-gel blue beads (75-150 μm diameter, indicated by white arrowheads) pre-soaked with 0.7 mg/ml vascular endothelial growth factor (VEGF) and microsurgically implanted into developing Xenopus embryos, assaying for the vasculature by ISH versus erg or apinr (showing data for erg). 6 of 8 control animals developed ectopic PCV or VV, as opposed to 0 of 9 TBZ-dosed animals (p value=0.0023).
Female adult Xenopus were ovulated by injections of human chorionic gonadotropin, and eggs were fertilized in vitro and dejellied in 3% cysteine (pH 7.9) and subsequently reared in ⅓×Marc's modified Ringer's (MMR) solution. For microinjections, embryos were placed in a solution of 2% Ficoll in ⅓×MMR solution, injected using forceps and an Oxford universal manipulator, reared in 2% Ficoll in ⅓×MMR to stage 9, then washed and reared in ⅓×MMR solution alone. For bilateral rab11b knock-down experiments, the posterior cardinal vein and intersomitic veins were targeted by injecting Morpholino antisense oligonucleotides (MOs) into the two ventral cells equatorially at the four-cell stage. For unilateral knockdown, only one ventral cell was injected. MOs were injected at 40 ng per blastomere. […]

[2] = system: vasculature within kdr:GFP frogs; assay: Time-lapse fluorescence microscopy of vasculature in kdr:GFP Xenopus embryos; format: in vivo, Xenopus laevis
Description: Immunohistochemistry and kdr:GFP transgenic Xenopus laevis were imaged on an inverted Zeiss LSM5 Pascal confocal microscope and Zeiss 5-LIVE Fast Scanning confocal microscope. Confocal images were processed and cropped in Imaris software (BITPLANE) and Adobe Illustrator and Adobe Photoshop for compilation of Figures.
To analyze action of TBZ precisely on inhibition of angiogenesis and disruption of vasculature, we tested TBZ on two different developmental stages. Xenopus late tailbud embryos at stage 31 were selected for testing the inhibitory effect of TBZ on angiogenesis (FIG. 3A-D). This embryonic stage coincides with the onset of intersomitic vein (ISV) angiogenesis, the process of forming smaller blood vessels by sprouting from pre-existing blood vessels. To observe disruption of existing vasculature, we selected stage 35/36 embryos in which the posterior cardinal vein (PCV) and ISV are already developed (FIG. 15).
As a direct test of the vascular disrupting activity of TBZ, we performed time-lapse imaging of developing vasculature. Using Kdr-GFP transgenic embryos^12 and time-lapse confocal microscopy^22, we could effectively image developing vasculature in vivo for periods of up 20 hours. During this time, the growth of existing blood vessels and the sprouting of new vasculature could be easily followed (FIG. 16). […] Upon longer exposures, endothelial cells scattered and many underwent dramatic rounding (FIGS. 5A, 17).

HUVECs [3] = assay: HUVEC wound scratch cell migration assay; format: cell-based, human; conditions: 250 μM TBZ, 15 h
Procedure: HUVECs (1.2×10^5 cells) were seeded into 24-well plate for 24 h, and the monolayers were wounded identically. Then, cells were washed with PBS and treated with EBM-2 containing 1% DMSO or 250 μM TBZ dissolved in 1% DMSO with combination of Y27632 or GGPP (Sigma). In the case of Y27632 treatment, cells were preincubated for 2 h before wounding. Cells were photographed at time zero and after 15 h, and the ratios of cell free area [(0 h-15 h)/0 h] were calculated.

tubulin proteins = assay: Quantitative mass spectrometry of tubulins in HUVECs; format: cell-based, human; conditions: 250 μM TBZ, 24 hours
Procedure: Following alkylation, samples were diluted in digestion buffer (50 mM Tris-HCl, pH 8.0, 2 mM CaCl2) to a final 2,2,2-trifluoroethanol concentration of 5% (v/v) and digested using proteomics grade trypsin (Sigma) at 1:50 (enzyme/protein) concentration and incubated at 37° C. for 4-5 h. Digestion was halted with the addition of 1% formic acid (v/v), and sample volume was reduced to 200 μl by SpeedVac centrifugation prior to loading on […] (Thermo). Samples were eluted (60% acetonitrile, 0.1% formic acid), reduced to 10 μl by SpeedVac centrifugation, and resuspended in sample buffer (5% acetonitrile, 0.1% formic acid). Tryptic peptides were then filtered through Microcon 10-kDa centrifugal filters (Millipore), and collected as flow-through. Peptides were chromatographically separated on a Zorbax reverse-phase C-18 column (Agilent) via a 230 min 5-38% acetonitrile gradient, then analyzed by on-line nanoelectrospray-ionization tandem mass spectrometry on an LTQ-Orbitrap (Thermo Scientific). […] Differential expression of proteins across TBZ-treated and control samples was quantified from the MS2 spectral count data using the APEX method of relative quantification^32.

mitochondria = assay: Mitochondrial mass and membrane potential (MitoTracker Green/Red); format: cell-based
HT1080 cells = assay: HT1080 cell proliferation in vitro; format: cell-based, human; conditions: cultured in vitro
Description: FIG. 21. […] Error bars represent mean±1 s.d. across 14-15 fields of view of 200× magnification confocal microscopy cell images across 2 independent experiments. Scale bar, 100 μm.

[4] = short-term or long-term studies at doses up to 15 times the usual human dose; cited from earlier work
[5] = mice; cited from earlier work
HUVECs [6] = assay: HUVEC cytoskeleton imaging (actin stress fibers, β-tubulin immunohistochemistry)
Procedure: Alexa Fluor 488 phalloidin (Invitrogen) and/or 4′,6-Diamidino-2-phenylindole (Sigma) were added as needed.

In the case of `c1ccc2[nH]c(-c3cscn3)nc2c1` [TBZ, 4-(1H-1,3-benzodiazol-2-yl)-1,3-thiazole], the “animals that developed ectopic PCV or VV” value ([1]; beads soaked with 0.7 mg/ml VEGF, control 6 of 8, p value=0.0023) is reported as 0 of 9, the “ectopic angiogenesis induced by ectopic VEGF” value ([1]; frog embryos) is reported as “blocked” and the “exposure time after which established blood vessels disintegrated” value ([2]; Kdr-GFP transgenic embryos) is reported as “approximately 90 minutes”. For the same compound, the “growth and sprouting of blood vessels” value ([2]; Kdr-GFP transgenic embryos, time-lapse confocal microscopy) was “completely prevented”, the “persistence of vascular gene expression in dispersed, rounded kdr-GFP+ endothelial cells after treatment” value ([2]; in vivo) was “up to 17 hours” and the “time within which endothelial cells retract from one another and round up” value ([2]; in vivo imaging of the vasculature) was ≤ 2 h. For the same compound, the “recovery of vasculature after washout of the drug” value ([2]; washout after TBZ-induced cell dispersal and rounding) was “significant re-spreading of endothelial cells and re-formation of blood vessels”, the “endothelial cell migration in scratch wound assay” value (HUVECs [3]) was “significantly slowed” and the “abundance of several tubulin proteins” value (tubulin proteins) was “significant reduction”. The “mitochondrial mass (MitoTracker Green signal)” value (mitochondria) was “no differences”, the “mitochondrial membrane potential (ratio of MitoTracker Red signal to Mitotracker Green signal)” value (mitochondria) was “no differences” and the “rate of proliferation in HT1080 cells” value (HT1080 cells) was “did not alter”. The carcinogenic effects [4] was “no carcinogenic effects”, the effect on fertility [5] was “does not appear to affect fertility” and the actin stress fibers (HUVECs [6]; 250 μM TBZ versus 1% DMSO control) was “disorganization of actin stress fibers”. For the same compound, the “gross organization of the MT cytoskeleton” value (HUVECs [6]; HUVEC cells in culture, 250 μM TBZ) was “only a very slight effect”.
